Columns and labels:
[1] = target: PI3-kinase p110-delta/p85-alpha (Homo sapiens, UniProt O00329); assay: Inhibition of recombinant human full length N-terminal His6-tagged PI3K p110delta/p85alpha expressed in baculovirus infected Sf21 cells using PIP2 as substrate after 35 to 40 mins by HTRF assay
[2] = species: Homo sapiens; assay: Selectivity ratio of IC50 for recombinant human full length N-terminal His6-tagged PI3K p110alpha/p85alpha expressed in baculovirus infected Sf21 cells to IC50 for recombinant human full length N-terminal His6-tagged PI3K p110delta/p85alpha expressed in baculovirus infected Sf21 cells
[3] = Intrinsic clearance in CD-1 mouse liver microsomes at 0.2 uM up to 45 mins in presence of NADPH by LC-MS/MS analysis; assay type: ADME, microsome; conditions: read-out: CLH
[4] = Aqueous solubility in pH 6.8 solution at 130 uM after 20 hrs by liquid chromatography method; assay type: physicochemical; conditions: aqueous pH 6.8 solution
[5] = species: Homo sapiens; assay: Selectivity ratio of IC50 for recombinant human full length N-terminal His6-tagged PI3K p110beta/p85alpha expressed in baculovirus infected Sf21 cells to IC50 for recombinant human full length N-terminal His6-tagged PI3K p110delta/p85alpha expressed in baculovirus infected Sf21 cells
[6] = species: Homo sapiens; assay: Selectivity ratio of IC50 for recombinant human full length N-terminal His6-tagged PI3K p120gamma expressed in baculovirus infected Sf21 cells to IC50 for recombinant human full length N-terminal His6-tagged PI3K p110delta/p85alpha expressed in baculovirus infected Sf21 cells
[7] = Permeability of the compound at 50 uM after 2 hrs by HPLC based PAMPA; assay type: ADME; conditions: read-out: permeability
[8] = target: T1, Cytochrome P450 1A2 (Homo sapiens, UniProt P05177); assay: Inhibition of CYP1A2 in human liver microsomes at 5 uM using phenacetin as substrate after 20 mins in presence of NADPH by LC-MS/MS analysis; assay type: ADME
T1 sequence (P05177 whole entry): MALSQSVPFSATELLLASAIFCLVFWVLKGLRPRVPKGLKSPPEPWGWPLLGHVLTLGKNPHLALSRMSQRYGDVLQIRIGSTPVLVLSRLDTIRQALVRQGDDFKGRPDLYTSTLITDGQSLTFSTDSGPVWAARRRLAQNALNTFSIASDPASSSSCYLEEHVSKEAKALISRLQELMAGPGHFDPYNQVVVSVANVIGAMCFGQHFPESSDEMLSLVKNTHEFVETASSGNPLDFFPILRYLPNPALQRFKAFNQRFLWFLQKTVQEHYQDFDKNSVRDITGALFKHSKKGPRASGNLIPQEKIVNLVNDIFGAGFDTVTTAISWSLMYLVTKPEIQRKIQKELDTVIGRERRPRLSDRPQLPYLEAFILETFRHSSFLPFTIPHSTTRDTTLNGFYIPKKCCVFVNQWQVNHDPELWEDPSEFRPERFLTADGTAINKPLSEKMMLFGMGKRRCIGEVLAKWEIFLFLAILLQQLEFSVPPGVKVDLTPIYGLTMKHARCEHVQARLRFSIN

[9] = target: T2, Cytochrome P450 2C8 (Homo sapiens, UniProt P10632); assay: Inhibition of CYP2C8 in human liver microsomes at 5 uM using amodiaquine as substrate after 20 mins in presence of NADPH by LC-MS/MS analysis; assay type: ADME
T2 sequence (P10632 whole entry): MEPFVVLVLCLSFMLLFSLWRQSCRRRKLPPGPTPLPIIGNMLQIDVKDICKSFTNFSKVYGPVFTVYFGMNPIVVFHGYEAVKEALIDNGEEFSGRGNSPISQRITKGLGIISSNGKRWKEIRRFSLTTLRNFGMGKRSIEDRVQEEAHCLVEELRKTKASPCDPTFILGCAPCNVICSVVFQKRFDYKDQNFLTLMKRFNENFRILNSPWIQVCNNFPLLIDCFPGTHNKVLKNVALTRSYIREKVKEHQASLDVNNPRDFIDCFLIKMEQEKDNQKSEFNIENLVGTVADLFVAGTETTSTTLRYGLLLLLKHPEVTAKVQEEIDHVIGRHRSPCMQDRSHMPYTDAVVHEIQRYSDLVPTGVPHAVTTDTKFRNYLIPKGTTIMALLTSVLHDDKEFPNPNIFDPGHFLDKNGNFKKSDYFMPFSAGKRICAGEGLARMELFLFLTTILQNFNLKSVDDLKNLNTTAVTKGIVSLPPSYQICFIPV

[10] = target: Cytochrome P450 2C9 (Homo sapiens, UniProt P11712); assay: Inhibition of CYP2C9 in human liver microsomes at 5 uM using diclofenac as substrate after 20 mins in presence of NADPH by LC-MS/MS analysis; assay type: ADME
Cytochrome P450 2C9, sequence (P11712 whole entry): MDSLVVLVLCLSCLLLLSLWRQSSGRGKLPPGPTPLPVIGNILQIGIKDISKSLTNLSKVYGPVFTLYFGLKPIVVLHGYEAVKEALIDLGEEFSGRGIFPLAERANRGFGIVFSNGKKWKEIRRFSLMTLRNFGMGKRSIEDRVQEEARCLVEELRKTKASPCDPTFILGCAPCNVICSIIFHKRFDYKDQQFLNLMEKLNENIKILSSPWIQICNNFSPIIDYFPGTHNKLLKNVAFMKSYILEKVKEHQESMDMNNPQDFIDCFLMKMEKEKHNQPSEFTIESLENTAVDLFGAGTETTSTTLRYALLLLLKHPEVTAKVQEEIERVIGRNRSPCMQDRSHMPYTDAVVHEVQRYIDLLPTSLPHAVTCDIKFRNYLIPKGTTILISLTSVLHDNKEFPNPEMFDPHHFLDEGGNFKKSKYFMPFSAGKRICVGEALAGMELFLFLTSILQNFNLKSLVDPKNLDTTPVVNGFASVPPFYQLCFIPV

[11] = target: Cytochrome P450 2C19 (Homo sapiens, UniProt P33261); assay: Inhibition of CYP2C19 in human liver microsomes at 5 uM using S-mephenytoin as substrate after 20 mins in presence of NADPH by LC-MS/MS analysis; assay type: ADME
Cytochrome P450 2C19, sequence (P33261 whole entry): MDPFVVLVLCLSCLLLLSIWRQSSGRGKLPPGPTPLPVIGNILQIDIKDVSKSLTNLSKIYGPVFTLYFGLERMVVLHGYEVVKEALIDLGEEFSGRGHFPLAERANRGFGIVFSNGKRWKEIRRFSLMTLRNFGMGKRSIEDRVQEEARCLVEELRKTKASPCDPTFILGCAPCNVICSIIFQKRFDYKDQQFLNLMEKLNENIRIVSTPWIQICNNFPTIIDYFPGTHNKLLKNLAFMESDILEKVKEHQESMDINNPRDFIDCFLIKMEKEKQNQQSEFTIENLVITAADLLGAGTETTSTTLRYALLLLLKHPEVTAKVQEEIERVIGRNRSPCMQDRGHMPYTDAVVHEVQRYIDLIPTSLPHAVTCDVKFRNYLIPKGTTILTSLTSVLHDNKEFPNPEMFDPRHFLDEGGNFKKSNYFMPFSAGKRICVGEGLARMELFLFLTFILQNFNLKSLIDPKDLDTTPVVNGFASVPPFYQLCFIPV

[12] = target: Cytochrome P450 2D6 (Homo sapiens, UniProt P10635); assay: Inhibition of CYP2D6 in human liver microsomes at 5 uM using dextromethorphan as substrate after 20 mins in presence of NADPH by LC-MS/MS analysis; assay type: ADME
Cytochrome P450 2D6, sequence (P10635 whole entry): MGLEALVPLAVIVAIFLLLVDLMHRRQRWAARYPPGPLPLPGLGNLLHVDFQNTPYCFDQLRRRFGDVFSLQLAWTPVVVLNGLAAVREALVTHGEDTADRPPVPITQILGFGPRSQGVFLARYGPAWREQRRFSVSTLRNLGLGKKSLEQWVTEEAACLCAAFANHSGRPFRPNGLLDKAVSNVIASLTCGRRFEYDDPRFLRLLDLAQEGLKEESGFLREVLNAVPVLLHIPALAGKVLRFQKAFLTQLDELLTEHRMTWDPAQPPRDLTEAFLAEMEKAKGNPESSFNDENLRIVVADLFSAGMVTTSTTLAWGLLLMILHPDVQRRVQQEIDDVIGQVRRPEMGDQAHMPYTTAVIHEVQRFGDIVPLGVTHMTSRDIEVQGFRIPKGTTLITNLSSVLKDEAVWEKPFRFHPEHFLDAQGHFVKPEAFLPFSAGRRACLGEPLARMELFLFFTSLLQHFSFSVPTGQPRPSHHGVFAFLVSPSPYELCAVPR

[13] = target: Cytochrome P450 3A4 (Homo sapiens, UniProt P08684); assay: Inhibition of CYP3A4 in human liver microsomes at 5 uM using midazolam as substrate after 20 mins in presence of NADPH by LC-MS/MS analysis; assay type: ADME
Cytochrome P450 3A4, sequence (P08684 whole entry): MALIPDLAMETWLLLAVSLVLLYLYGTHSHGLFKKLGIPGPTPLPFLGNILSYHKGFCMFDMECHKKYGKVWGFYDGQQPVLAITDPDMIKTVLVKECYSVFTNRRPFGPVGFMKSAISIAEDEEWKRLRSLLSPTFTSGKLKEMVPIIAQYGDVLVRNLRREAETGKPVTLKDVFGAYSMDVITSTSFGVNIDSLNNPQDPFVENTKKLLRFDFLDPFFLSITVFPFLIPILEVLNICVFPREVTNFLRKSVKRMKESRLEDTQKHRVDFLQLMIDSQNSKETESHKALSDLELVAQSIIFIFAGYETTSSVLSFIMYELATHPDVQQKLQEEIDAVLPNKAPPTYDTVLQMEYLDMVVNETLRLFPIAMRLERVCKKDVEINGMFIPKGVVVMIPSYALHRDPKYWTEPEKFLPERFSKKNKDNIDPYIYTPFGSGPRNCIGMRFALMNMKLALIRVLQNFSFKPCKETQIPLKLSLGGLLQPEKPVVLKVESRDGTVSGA

[14] = Total clearance in Balb/c mouse at 1 mg/kg, iv or 3 mg/kg, po by LC-MS/MS analysis; assay type: ADME, organism-based; conditions: in vivo
[15] = Volume of distribution at steady state in Balb/c mouse at 1 mg/kg, iv or 3 mg/kg, po by LC-MS/MS analysis; assay type: ADME, organism-based; conditions: in vivo, read-out: Vdss
[16] = Half life in Balb/c mouse at 1 mg/kg, iv or 3 mg/kg, po by LC-MS/MS analysis; assay type: ADME, organism-based; conditions: in vivo
[17] = Cmax in Balb/c mouse at 1 mg/kg, iv or 3 mg/kg, po by LC-MS/MS analysis; assay type: ADME, organism-based; conditions: in vivo
[18] = Tmax in Balb/c mouse at 1 mg/kg, iv or 3 mg/kg, po by LC-MS/MS analysis; assay type: ADME, organism-based; conditions: in vivo
[19] = AUC (0 to 24 hrs) in Balb/c mouse at 1 mg/kg, iv or 3 mg/kg, po by LC-MS/MS analysis; assay type: ADME, organism-based; conditions: in vivo
[20] = Fraction unbound in mouse plasma at 2 uM after 6 hrs by LC-MS/MS based equilibrium dialysis method; assay type: ADME, cell-free
[21] = Oral bioavailability in Balb/c mouse at 3 mg/kg by LC-MS/MS analysis; assay type: ADME, organism-based; conditions: in vivo
[22] = test system: Mus musculus; assay: In vivo inhibition of PI3Kdelta in Balb/c mouse assessed as reduction in trinitrophenylated aminoethylcarboxymethyl-Ficoll-induced antibody production in plasma administered orally twice daily measured on day 4 by ELISA; assay type: functional, organism-based
[23] = test system: Mus musculus; assay: In vivo inhibition of PI3Kdelta in Balb/c mouse assessed as reduction in trinitrophenylated aminoethylcarboxymethyl-Ficoll-induced antibody production in plasma at 2 mg/kg, po administered twice daily measured on day 4 by ELISA relative to control; assay type: functional; conditions: 96 h
[24] = test system: Mus musculus; assay: In vivo inhibition of PI3Kdelta in Balb/c mouse assessed as reduction in trinitrophenylated aminoethylcarboxymethyl-Ficoll-induced antibody production in plasma at 1 mg/kg, po administered twice daily measured on day 4 by ELISA relative to control; assay type: functional; conditions: 96 h
[25] = test system: Mus musculus; assay: In vivo inhibition of PI3Kdelta in Balb/c mouse assessed as reduction in trinitrophenylated aminoethylcarboxymethyl-Ficoll-induced antibody production in plasma at 0.5 mg/kg, po administered twice daily measured on day 4 by ELISA relative to control; assay type: functional; conditions: 96 h
[26] = Metabolic stability in CD-1 mouse liver microsomes at 0.2 uM up to 45 mins in presence of NADPH by LC-MS/MS analysis; assay type: ADME, microsome; conditions: 0.75 h

PI3-kinase p110-delta/p85-alpha, sequence (P27986 whole entry): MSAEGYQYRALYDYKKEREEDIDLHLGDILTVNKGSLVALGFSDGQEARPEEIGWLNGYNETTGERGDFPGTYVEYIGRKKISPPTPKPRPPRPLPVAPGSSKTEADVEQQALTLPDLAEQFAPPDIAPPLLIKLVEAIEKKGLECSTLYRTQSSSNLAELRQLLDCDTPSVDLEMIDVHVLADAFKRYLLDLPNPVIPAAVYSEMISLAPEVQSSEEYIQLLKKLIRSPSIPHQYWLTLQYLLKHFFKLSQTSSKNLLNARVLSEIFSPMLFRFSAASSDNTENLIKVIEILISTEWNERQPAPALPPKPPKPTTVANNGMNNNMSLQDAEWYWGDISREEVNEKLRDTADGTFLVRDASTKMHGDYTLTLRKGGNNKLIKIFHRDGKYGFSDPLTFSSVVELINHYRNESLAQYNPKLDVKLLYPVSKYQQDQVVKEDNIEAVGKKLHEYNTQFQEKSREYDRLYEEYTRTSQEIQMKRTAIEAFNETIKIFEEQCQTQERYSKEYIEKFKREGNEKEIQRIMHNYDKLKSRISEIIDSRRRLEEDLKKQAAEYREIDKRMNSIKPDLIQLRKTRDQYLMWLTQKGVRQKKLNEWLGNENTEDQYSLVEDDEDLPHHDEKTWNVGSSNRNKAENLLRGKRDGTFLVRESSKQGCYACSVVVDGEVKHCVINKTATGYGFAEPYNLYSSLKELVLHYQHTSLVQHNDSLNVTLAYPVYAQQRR
PI3-kinase p110-delta/p85-alpha, sequence (O00329 whole entry): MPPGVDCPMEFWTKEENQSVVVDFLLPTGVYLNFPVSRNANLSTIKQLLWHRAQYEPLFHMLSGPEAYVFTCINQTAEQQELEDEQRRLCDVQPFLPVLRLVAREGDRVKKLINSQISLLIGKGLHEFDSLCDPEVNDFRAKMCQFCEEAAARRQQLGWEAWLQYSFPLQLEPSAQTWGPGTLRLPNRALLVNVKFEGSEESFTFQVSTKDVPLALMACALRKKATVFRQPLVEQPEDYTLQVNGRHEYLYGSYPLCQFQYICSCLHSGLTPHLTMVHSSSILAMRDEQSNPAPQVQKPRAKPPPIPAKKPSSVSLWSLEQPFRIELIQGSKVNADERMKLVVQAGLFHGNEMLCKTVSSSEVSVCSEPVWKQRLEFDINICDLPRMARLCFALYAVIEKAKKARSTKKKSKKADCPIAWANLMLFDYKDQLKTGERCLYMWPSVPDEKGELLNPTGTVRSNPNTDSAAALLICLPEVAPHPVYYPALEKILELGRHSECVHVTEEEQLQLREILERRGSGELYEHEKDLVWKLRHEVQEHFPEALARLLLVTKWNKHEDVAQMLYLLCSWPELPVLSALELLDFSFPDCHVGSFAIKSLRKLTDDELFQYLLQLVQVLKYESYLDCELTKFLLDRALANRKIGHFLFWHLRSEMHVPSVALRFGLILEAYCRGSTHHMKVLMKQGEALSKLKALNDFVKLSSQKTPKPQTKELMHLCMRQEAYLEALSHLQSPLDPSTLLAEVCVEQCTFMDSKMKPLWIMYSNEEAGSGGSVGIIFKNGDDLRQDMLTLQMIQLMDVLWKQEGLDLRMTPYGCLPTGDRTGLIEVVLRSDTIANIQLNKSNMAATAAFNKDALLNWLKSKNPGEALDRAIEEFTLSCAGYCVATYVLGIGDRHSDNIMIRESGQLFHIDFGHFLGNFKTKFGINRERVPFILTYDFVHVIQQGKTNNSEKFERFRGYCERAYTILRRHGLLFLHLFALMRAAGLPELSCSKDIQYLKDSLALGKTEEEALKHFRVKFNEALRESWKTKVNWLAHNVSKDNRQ

## COc1ncc(-c2cc(OC[C@@H]3CCCN(Cc4c(C)nn(C)c4C)C3)c3cnn(C)c3n2)cc1NS(C)(=O)=O
[1]
  IC50: 1.4 nM
[2]
  Ratio IC50: 780
[3]
  CLint scaled at 0.2 µM: > 1000 mL/min/kg

## COc1ncc(-c2cc(OC[C@@H]3CCCN(C(=O)CC4CCOC4)C3)c3cnn(C)c3n2)cc1NS(C)(=O)=O (stereo partly specified)
[1]
  IC50: 4.8 nM
[2]
  Ratio IC50: 210

## COc1ncc(-c2cc(OC[C@@H]3CCCN(CCC4CCOCC4)C3)c3cnn(C)c3n2)cc1NS(C)(=O)=O
[4]
  solubility at 20 h, 130 µM: ≥ 100 µM
[1]
  IC50: 1.3 nM
[2]
  Ratio IC50: 430
[5]
  Ratio IC50: 660
[6]
  Ratio IC50: 3600
[3]
  CLint scaled at 0.2 µM: 88 mL/min/kg
[7]
  Papp at 2 h, 50 µM: 22 ×10⁻⁶ cm/s
[8]
  inhibition (INH): Not Active
[9]
  inhibition (INH): Not Active
[10]
  inhibition (INH): Not Active
[11]
  inhibition (INH): Not Active
[12]
  inhibition (INH): Not Active
[13]
  inhibition (INH): Not Active
[14]
  clearance: 25.5 mL/min/kg
[15]
  Vd: 5.64 L/kg
[16]
  half-life: 158 min
[17]
  Cmax: 230 ng/mL
[18]
  Tmax: 30 min
[19]
  AUC(0-t): 1420 ng·h/mL
[20]
  fraction unbound at 6 h, 2 µM: 0.23
[21]
  bioavailability: 73%
[22]
  inhibition: Dose-dependent effect
[23]
  inhibition in vivo at 2 mg/kg: 83%
[24]
  inhibition in vivo at 1 mg/kg: 68%
[25]
  inhibition in vivo at 0.5 mg/kg: 56%

## COc1ncc(-c2cc(O[C@H]3CC[C@H](NC(=O)C4CCOCC4)CC3)c3cnn(C)c3n2)cc1NS(C)(=O)=O
[1]
  IC50: 150 nM

## COc1ncc(-c2cc(OC[C@@H]3CCCN(C(=O)c4cccnn4)C3)c3cnn(C)c3n2)cc1NS(C)(=O)=O
[1]
  IC50: 7.3 nM
[2]
  Ratio IC50: 35

## COc1ncc(-c2cc(OC[C@@H]3CCCN(C(=O)C4CCN(C(C)=O)CC4)C3)c3cnn(C)c3n2)cc1NS(C)(=O)=O
[1]
  IC50: 4.6 nM
[2]
  Ratio IC50: 260

## COc1ncc(-c2cc(OC[C@@H]3CCCN(C(=O)C4CCOCC4)C3)c3cnn(C)c3n2)cc1NS(C)(=O)=O
[1]
  IC50: 3.9 nM
[2]
  Ratio IC50: 39
[5]
  Ratio IC50: 1300
[6]
  Ratio IC50: 490

## COc1ncc(-c2cc(OC[C@@H]3CCCN(Cc4cn(C)nc4C)C3)c3cnn(C)c3n2)cc1NS(C)(=O)=O
[1]
  IC50: 3.2 nM
[2]
  Ratio IC50: 730
[3]
  CLint scaled at 0.2 µM: > 1000 mL/min/kg

## COc1ncc(-c2cc(O[C@@H]3CCN(Cc4c(C)nn(C)c4C)C3)c3cnn(C)c3n2)cc1NS(C)(=O)=O
[3]
  CLint scaled at 0.2 µM: 620 mL/min/kg
[23]
  inhibition in vivo at 2 mg/kg: 37%

## COc1ncc(-c2cc(OC3CN(C(=O)C4CCOCC4)C3)c3cnn(C)c3n2)cc1NS(C)(=O)=O
[1]
  IC50: 63 nM
[2]
  Ratio IC50: 3.7

## COc1ncc(-c2cc(OC[C@@H]3CCCN(CC4CCOCC4)C3)c3cnn(C)c3n2)cc1NS(C)(=O)=O
[1]
  IC50: 0.79 nM
[2]
  Ratio IC50: 87
[5]
  Ratio IC50: 890
[6]
  Ratio IC50: 3200
[3]
  CLint scaled at 0.2 µM: 340 mL/min/kg

## COc1ncc(-c2cc(O[C@@H]3CCN(C(=O)C4CCOCC4)C3)c3cnn(C)c3n2)cc1NS(C)(=O)=O
[26]
  Stability: Stable
[23]
  inhibition in vivo at 2 mg/kg: 32%
[24]
  inhibition in vivo at 1 mg/kg: -2%

## COc1ncc(-c2cc(OC[C@@H]3CCCN(CC4(C)COC4)C3)c3cnn(C)c3n2)cc1NS(C)(=O)=O
[1]
  IC50: 1.8 nM
[2]
  Ratio IC50: 570
[3]
  CLint scaled at 0.2 µM: 910 mL/min/kg

## COc1ncc(-c2cc(OC[C@@H]3CCCN(C(=O)C4CCN(CCC(F)(F)F)CC4)C3)c3cnn(C)c3n2)cc1NS(C)(=O)=O
[1]
  IC50: 41 nM
[2]
  Ratio IC50: 38

## COc1ncc(-c2cc(OC[C@H]3CCCN(C(=O)C4CCOCC4)C3)c3cnn(C)c3n2)cc1NS(C)(=O)=O
[1]
  IC50: 30 nM
[2]
  Ratio IC50: 6.6

Reference: ChEMBL document CHEMBL4229407, “Optimization and in vivo evaluation of pyrazolopyridines as a potent and selective PI3Kδ inhibitor” (Bioorg Med Chem, 2018)
